A value given as a limit tells only on which side of the number the result lay.

The target of experiment [1] is T1, PAD4 enzyme (Homo sapiens (Human), UniProt Q9UM07). The experiment can be described thus: Ammonia Release Biochemical Assay (citrullination detected via ammonia release). As to conditions: PAD4 120 nM, substrate BAEE, 60-min preincubation, read-out: NH3 release. The protocol:
Ammonia Release Biochemical Assay
Citrullination assay was detected via ammonia release. PAD4 enzyme was diluted to 120 nM in assay buffer (100 mM HEPES, 50 mM NaCl, 2 mM DDT, 0.6 mg/mL BSA, pH 7.4) added to wells containing various concentration of compound or DMSO vehicle (1% final) in black 384 well plate. Following a 60-min preincubation at room temperature, the reaction was initiated by the addition of substrate (1.5 mM BAEE in 200 mM HEPES, 50 mM NaCl, 350 uM CaCl2, 2 mM, pH 7.4). The reaction was stopped after 60 min by addition of stop/detection buffer containing 50 mM EDTA, 2.6 mM of o-phthaladehyde and 2.6 mM DTT. Assay was incubated at room temperature for 90 min before measuring fluorescence's (λex 405/λem 460 nm) on Tecan reader. IC50 was calculated using XL-fit software model 205. (Ref: Nat Chem Biol. 2015 March; 11(3):189-91).

Experiment [2] addresses T1, PAD4 enzyme. Nature of the experiment: FP Binding Assay. The following applies: for IC50: PAD4 1 uM, 10 nM fluorescein labelled probe JPAD-00085. As for the experimental part:
Binding of compounds with PAD4 enzyme was detected by FP assay. PAD4 enzyme was diluted to 1 uM in assay buffer (100 mM HEPES, 50 mM NaCl, 1 mM DTT, 5% Glycerol and 1 mM CHAPS) and added to wells containing various concentration of compounds or DMSO vehicle (1%) in a 384 well black plate. 10 nM of fluorescein labelled probe (JPAD-00085) was added to the plate. Assay plate was incubated for 60 minutes at room temperature before measuring FP reading at FP module (λex 485/λem 535 nm) on Pherastar. IC50 was calculated using XL-fit software model 205. (Ref: Nat Chem Biol. 2015 March; 11(3):189-91).

T1 sequence (Q9UM07 whole entry): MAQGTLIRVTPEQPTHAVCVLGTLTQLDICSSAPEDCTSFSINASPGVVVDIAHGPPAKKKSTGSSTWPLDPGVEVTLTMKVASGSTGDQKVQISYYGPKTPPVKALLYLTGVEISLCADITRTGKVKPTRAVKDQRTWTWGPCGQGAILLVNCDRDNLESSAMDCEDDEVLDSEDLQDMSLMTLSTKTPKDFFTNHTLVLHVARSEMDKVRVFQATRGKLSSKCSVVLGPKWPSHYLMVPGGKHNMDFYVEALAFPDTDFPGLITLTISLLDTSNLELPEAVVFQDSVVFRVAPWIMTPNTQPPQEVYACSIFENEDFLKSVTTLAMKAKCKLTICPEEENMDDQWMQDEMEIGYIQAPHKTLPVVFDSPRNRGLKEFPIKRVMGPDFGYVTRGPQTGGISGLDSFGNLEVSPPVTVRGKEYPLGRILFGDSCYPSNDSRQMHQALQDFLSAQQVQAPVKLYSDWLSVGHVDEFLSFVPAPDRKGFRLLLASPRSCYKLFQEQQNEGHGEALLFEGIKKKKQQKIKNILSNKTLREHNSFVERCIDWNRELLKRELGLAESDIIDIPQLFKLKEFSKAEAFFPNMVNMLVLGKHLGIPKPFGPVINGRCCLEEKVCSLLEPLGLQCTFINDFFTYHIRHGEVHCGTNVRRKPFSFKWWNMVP

Turning to `COc1cc2cc(-c3nc4cc(C(=O)N5CCC[C@@H](N)C5)cc5c4n3CCO5)n(CC3CC3)c2cc1OC` [Example 17, (R)-(3-aminopiperidin-1-yl)(2-(1-(cyclopropylmethyl)-5,6-dimethoxy-1H-indol-2-yl)-3,4-dihydro-5-oxa-1,2a-diazaacenaphthylen-7-yl)methanone], the figures for the IC50 at PAD4 enzyme [1] and at PAD4 enzyme [2] were at most 1000 nM and 1000 to 10000 nM, respectively.

Regarding `N[C@@H]1CCCN(C(=O)c2cc3c4c(c2)nc(-c2cc5ccccc5n2Cc2ccc(F)cc2)n4CCO3)C1` [Example 15, (R)-(3-aminopiperidin-1-yl)(2-(1-(4-fluorobenzyl)-1H-indol-2-yl)-3,4-dihydro-5-oxa-1,2a-diazaacenaphthylen-7-yl)methanone], the IC50 at PAD4 enzyme [1] was at most 1000 nM; at PAD4 enzyme [2] it was 1000 to 10000 nM. For `N[C@@H]1CCCN(C(=O)c2cc3c4c(c2)nc(-c2cc5ccccc5n2Cc2ccc(Cl)cc2)n4CCO3)C1` [Example 13, (R)-(3-aminopiperidin-1-yl)(2-(1-(4-chlorobenzyl)-1H-indol-2-yl)-3,4-dihydro-5-oxa-1,2a-diazaacenaphthylene-7-yl)methanone] the same measures were at most 1000 nM and 1000 to 10000 nM. For `CCn1c(-c2nc3cc(C(=O)N4CCC[C@@H](N)C4)cc4c3n2CCO4)cc2cccnc21` [Example 5, (R)-(3-aminopiperidin-1-yl)(2-(1-ethyl-1H-pyrrolo[2,3-b]pyridin-2-yl)-3,4-dihydro-5-oxa-1,2a-diazaacenaphthylen-7-yl)methanone] the same measures were 1000 to 10000 nM and 1000 to 10000 nM. As to `N[C@@H]1CCCN(C(=O)c2cc3c4c(c2)nc(-c2cc5ccccc5n2Cc2ccccc2)n4CCO3)C1` [Example 18, (R)-(3-aminopiperidin-1-yl)(2-(1-benzyl-1H-indol-2-yl)-3,4-dihydro-5-oxa-1,2a-diazaacenaphthylen-7-yl)methanone], the IC50 at PAD4 enzyme [1] was at most 1000 nM; at PAD4 enzyme [2], 1000 to 10000 nM. `N[C@@H]1CCCN(C(=O)c2cc3c4c(c2)nc(-c2cc5ccccc5n2CC2CC2)n4CCO3)C1` [Example 1, (R)-(3-aminopiperidin-1-yl)(2-(1-(cyclopropylmethyl)-1H-indol-2-yl)-3,4-dihydro-5-oxa-1,2a-diazaacenaphthylen-7-yl)methanone] came in with an IC50 at PAD4 enzyme [2] of 1000 to 10000 nM. Regarding `COc1ccc(Cn2c(-c3nc4cc(C(=O)N5CCC[C@@H](N)C5)cc5c4n3CCO5)cc3ccccc32)cc1` [Example 19, (R)-(3-aminopiperidin-1-yl)(2-(1-(4-methoxybenzyl)-1H-indol-2-yl)-3,4-dihydro-5-oxa-1,2a-diazaacenaphthylen-7-yl)methanone], at PAD4 enzyme [2], the “inhibition of PAD4 enzyme activity in FP Binding assay” value (“inhibition of PAD4 enzyme activity” for short) was “actively inhibiting PAD4 enzyme activity”. For the compound `COc1ccc2cc(-c3nc4cc(C(=O)N5CCC[C@@H](N)C5)cc5c4n3CCN5)n(CC3CC3)c2c1` [Example 73, (R)-(3-aminopiperidin-1-yl)(2-(1-(cyclopropylmethyl)-6-methoxy-1H-indol-2-yl)-5,6-dihydro-4H-imidazo[1,5,4-de]quinoxalin-8-yl)methanone], at PAD4 enzyme [2], the “inhibition of PAD4 enzyme activity” value was “actively inhibiting PAD4 enzyme activity”.

On to `N[C@@H]1CCCN(C(=O)c2cc3c4c(c2)nc(-c2cc5cc(F)c(F)cc5n2CC2CC2)n4CCN3)C1` [Example 77, (R)-(3-aminopiperidin-1-yl)(2-(1-(cyclopropylmethyl)-5,6-difluoro-1H-indol-2-yl)-5,6-dihydro-4H-imidazo[1,5,4-de]quinoxalin-8-yl)methanone], for which the “inhibition of PAD4 enzyme activity” value at PAD4 enzyme [2] was “actively inhibiting PAD4 enzyme activity”. Turning to `CCn1c(-c2nc3cc(C(=O)N4CCC[C@@H](N)C4)cc4c3n2CCO4)cc2ccccc21` [Example 3, (R)-(3-aminopiperidin-1-yl)(2-(1-ethyl-1H-indol-2-yl)-3,4-dihydro-5-oxa-1,2a-diazaacenaphthylen-7-yl)methanone], at PAD4 enzyme [1], the IC50 lay within 1000 to 10000 nM. For the compound `N[C@@H]1CCCN(C(=O)c2cc3c4c(c2)nc(-c2cc5ccccc5n2CC2CCNCC2)n4CCO3)C1` [Example 43, (R)-(3-aminopiperidin-1-yl)(2-(1-(piperidin-4-ylmethyl)-1H-indol-2-yl)-3,4-dihydro-5-oxa-1,2a-diazaacenaphthylen-7-yl)methanone], on PAD4 enzyme [1], the IC50 is at least 10000 nM.

Turning to `N[C@@H]1CCCN(C(=O)c2cc3c4c(c2)nc(-c2cc5cc(/C=C/c6ccccc6)ccc5n2CC2CC2)n4CCO3)C1` [Example 58, (R,E)-(3-aminopiperidin-1-yl)(2-(1-(cyclopropylmethyl)-5-styryl-1H-indol-2-yl)-3,4-dihydro-5-oxa-1,2a-diazaacenaphthylen-7-yl)methanone], on PAD4 enzyme [1], the IC50 was in the range of 1000 to 10000 nM.

Regarding `N[C@@H]1CCCN(C(=O)c2cc3c4c(c2)nc(-c2cc5cccc(Cl)c5n2Cc2cncnc2)n4CCO3)C1` [Example 88, (R)-(3-aminopiperidin-1-yl)(2-(7-chloro-1-(pyrimidin-5-ylmethyl)-1H-indol-2-yl)-3,4-dihydro-5-oxa-1,2a-diazaacenaphthylen-7-yl)methanone], on PAD4 enzyme [1], the IC50 is 1000 to 10000 nM.

Take `N[C@@H]1CCCN(C(=O)c2cc3c4c(c2)nc(-c2cc5cccc(Cl)c5n2Cc2ncccc2F)n4CCO3)C1` [Example 34, (R)-(3-aminopiperidin-1-yl)(2-(7-chloro-1-((3-fluoropyridin-2-yl)methyl)-1H-indol-2-yl)-3,4-dihydro-5-oxa-1,2a-diazaacenaphthylen-7-yl)methanone]: the IC50 on PAD4 enzyme [1] was at most 1000 nM. Turning to `N[C@@H]1CCCN(C(=O)c2cc3c4c(c2)nc(-c2cc5ccccc5n2Cc2ccncc2F)n4CCO3)C1` [Example 24, (R)-(3-aminopiperidin-1-yl)(2-(1-((3-fluoropyridin-4-yl)methyl)-1H-indol-2-yl)-3,4-dihydro-5-oxa-1,2a-diazaacenaphthylen-7-yl)methanone], the IC50 on PAD4 enzyme [1] is at most 1000 nM. For `COCCn1c(-c2nc3cc(C(=O)N4CCC[C@@H](N)C4)cc4c3n2CCO4)cc2ccc(F)cc21` [Example 52], the IC50 at PAD4 enzyme [1] was 1000 to 10000 nM.

As for `N[C@@H]1CCCN(C(=O)c2cc3c4c(c2)nc(-c2cc5ccccc5n2CC2CCOCC2)n4CCO3)C1` [Example 40, (R)-(3-aminopiperidin-1-yl)(2-(1-((tetrahydro-2H-pyran-4-yl)methyl)-1H-indol-2-yl)-3,4-dihydro-5-oxa-1,2a-diazaacenaphthylen-7-yl)methanone], the IC50 at PAD4 enzyme [1] was in the range of 1000 to 10000 nM. As to `CN1CCn2c(-c3cc4ccccc4n3CC3CC3)nc3cc(C(=O)N4CCC[C@@H](N)C4)cc1c32` [Example 72, (R)-(3-aminopiperidin-1-yl)(2-(1-(cyclopropylmethyl)-1H-indol-2-yl)-6-methyl-5,6-dihydro-4H-imidazo[1,5,4-de]quinoxalin-8-yl)methanone], the “inhibition of PAD4 enzyme activity” value at PAD4 enzyme [2] is reported as “actively inhibiting PAD4 enzyme activity”. With `CC1(C)COc2cc(C(=O)N3CCC[C@@H](N)C3)cc3nc(-c4cc5ccccc5n4CC4CC4)n1c23` [Example 62, (R)-(3-aminopiperidin-1-yl)(2-(1-(cyclopropylmethyl)-1H-indol-2-yl)-3,3-dimethyl-3,4-dihydro-5-oxa-1,2a-diazaacenaphthylen-7-yl)methanone], on PAD4 enzyme [1], the IC50 was at least 10000 nM.

As to `N[C@@H]1CCCN(C(=O)c2cc3c4c(c2)nc(-c2cc5ccccc5n2CC2CC2)n4CCN3S(=O)(=O)CCc2ccccc2)C1` [Example 79, (R)-(3-aminopiperidin-1-yl)(2-(1-(cyclopropylmethyl)-1H-indol-2-yl)-6-(phenethylsulfonyl)-5,6-dihydro-4H-imidazo[1,5,4-de]quinoxalin-8-yl)methanone], on PAD4 enzyme [1], the IC50 fell in the range of 1000 to 10000 nM.

The record behind these values is patent US11833156B2, “Heterocyclic compounds as pad inhibitors” (JUBILANT EPIPAD LLC, priority 2017, dated 2023).
